Results on 28 molecules are retold here after US11780849B2, “Imino sulfanone inhibitors of ENPP1” (Volastra Therapeutics, Inc., priority 2020, dated 2023).

Where two headings read alike, the source gives them in different places.

Test [1] concerns the target T1, ENPP-1 ECD (Homo sapiens (Human), UniProt P22413). Description: Assay 2: inhibition of ENPP1 hydrolysis of 2′,3′-cGAMP (AMP-Glo, […] enzyme).
Experimental: Assay 2: Compared to the conditions in Assay 1, this assay has a larger dynamic range and ensures the system is under steady-state conditions by reducing the enzyme concentration in the assay.
Test compounds were plated in a 3× dilution scheme in a 384 well plate. […] AMP Detection solution (10 μL) was added to each well, the plate centrifuged and incubated for 60 min.
Test [2] addresses ENPP1 on MDA-MB-231 cells (Homo sapiens (Human), UniProt P22413). As to the kind of experiment: Assay 3: inhibition of ENPP1 hydrolysis of AMP p-nitrophenyl ester on MDA-MB-231 cells.
Test [3] concerns the target T1, ENPP-1 ECD. Description: Assay 1: inhibition of ENPP1 hydrolysis of 2′,3′-cGAMP (AMP-Glo, […] enzyme).
Experimental: Assay 1: Test compounds were plated in a 3× dilution scheme in a 384 well plate. […] AMP Detection solution (100 μL) was added to each well, the plate centrifuged and incubated for 60 min.
The mark [4] stands for this setting: Assay 2 (KI), ENPP1 hydrolysis of 2′,3′-cGAMP, AMP-Glo, […] ENPP-1, 24 μM cGAMP.
Setting [5] is: Assay 2 (KI), inhibition of ENPP1 hydrolysis of 2′,3′-cGAMP, no unit in Table 18 (Table 17 legend for this assay uses nM).
[6] abbreviates: Assay 1 (IC50), ENPP1 hydrolysis of 2′,3′-cGAMP, AMP-Glo.
Where [7] appears, read: Assay 1 (IC50), inhibition of ENPP1 hydrolysis of 2′,3′-cGAMP, no unit in Table 18 (Table 17 legend for this assay uses nM).
[8] abbreviates: IC50 in Assay 1, […] ENPP-1 ECD, 24 μM 2,3-cGAMP, pH 8.0.
The mark [9] stands for this setting: read-out: Assay 1 (IC50), ENPP1 hydrolysis of 2′,3′-cGAMP, AMP-Glo.
Where [10] appears, read: read-out: Assay 2 (KI), inhibition of ENPP1 hydrolysis of 2′,3′-cGAMP, no unit in Table 18 (Table 17 legend for this assay uses nM).
Setting [11] is: read-out: Assay 3 (KI, app), apparent KI from IC50 via Cheng/Prusoff, pNP-AMP […], MDA-MB-231 cells, pH 7.4, 37° C., 3 h, unit inferred.

T1 sequence (P22413 98-925): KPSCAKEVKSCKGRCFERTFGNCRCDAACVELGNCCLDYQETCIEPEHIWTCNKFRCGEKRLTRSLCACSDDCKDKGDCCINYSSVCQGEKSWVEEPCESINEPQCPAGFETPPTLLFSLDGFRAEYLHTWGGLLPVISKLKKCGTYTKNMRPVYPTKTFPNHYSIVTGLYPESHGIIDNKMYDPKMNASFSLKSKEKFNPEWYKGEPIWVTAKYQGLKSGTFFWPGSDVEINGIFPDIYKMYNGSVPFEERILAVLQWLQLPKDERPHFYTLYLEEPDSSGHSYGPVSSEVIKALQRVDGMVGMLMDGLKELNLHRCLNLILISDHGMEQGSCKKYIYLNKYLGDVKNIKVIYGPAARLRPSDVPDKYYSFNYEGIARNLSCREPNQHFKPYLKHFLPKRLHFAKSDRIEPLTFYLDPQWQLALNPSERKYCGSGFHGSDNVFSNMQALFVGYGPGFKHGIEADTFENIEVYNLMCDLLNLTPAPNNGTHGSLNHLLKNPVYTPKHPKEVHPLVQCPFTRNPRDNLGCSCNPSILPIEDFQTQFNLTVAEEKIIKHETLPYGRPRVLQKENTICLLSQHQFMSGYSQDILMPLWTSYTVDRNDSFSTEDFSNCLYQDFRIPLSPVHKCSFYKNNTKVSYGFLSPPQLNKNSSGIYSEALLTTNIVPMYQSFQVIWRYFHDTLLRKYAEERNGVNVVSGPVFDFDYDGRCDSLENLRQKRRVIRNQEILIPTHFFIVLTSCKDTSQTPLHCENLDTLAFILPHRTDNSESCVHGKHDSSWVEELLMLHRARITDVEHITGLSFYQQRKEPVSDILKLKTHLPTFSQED
Sequence of ENPP1 on MDA-MB-231 cells (P22413 whole entry, the tested form may be a part): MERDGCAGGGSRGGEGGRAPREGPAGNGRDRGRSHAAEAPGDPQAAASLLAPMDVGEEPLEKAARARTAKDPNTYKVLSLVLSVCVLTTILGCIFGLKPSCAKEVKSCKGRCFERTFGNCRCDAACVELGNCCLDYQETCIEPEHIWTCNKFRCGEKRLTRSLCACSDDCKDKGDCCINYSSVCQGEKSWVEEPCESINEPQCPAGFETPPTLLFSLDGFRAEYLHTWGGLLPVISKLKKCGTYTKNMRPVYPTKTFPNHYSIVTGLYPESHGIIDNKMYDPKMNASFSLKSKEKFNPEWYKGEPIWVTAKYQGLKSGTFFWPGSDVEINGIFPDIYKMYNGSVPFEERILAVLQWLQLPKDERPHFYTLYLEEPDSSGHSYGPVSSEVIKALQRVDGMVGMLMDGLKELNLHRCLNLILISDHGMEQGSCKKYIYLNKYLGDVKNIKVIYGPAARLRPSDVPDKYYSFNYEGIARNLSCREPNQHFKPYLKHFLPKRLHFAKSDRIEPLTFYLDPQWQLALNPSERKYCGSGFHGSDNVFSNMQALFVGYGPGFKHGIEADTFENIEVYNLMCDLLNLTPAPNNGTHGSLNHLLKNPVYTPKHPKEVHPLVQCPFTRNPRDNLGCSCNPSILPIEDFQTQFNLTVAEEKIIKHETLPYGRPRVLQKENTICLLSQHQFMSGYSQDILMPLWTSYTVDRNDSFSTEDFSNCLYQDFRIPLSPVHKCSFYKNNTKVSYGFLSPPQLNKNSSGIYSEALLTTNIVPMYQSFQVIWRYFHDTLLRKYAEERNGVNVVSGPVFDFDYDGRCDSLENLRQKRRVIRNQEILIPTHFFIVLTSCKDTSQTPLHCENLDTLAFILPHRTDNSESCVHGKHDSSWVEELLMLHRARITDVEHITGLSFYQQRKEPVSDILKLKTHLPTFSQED

Take `COc1cc2nccc(Oc3ccc(S(C)(=N)=O)cc3)c2cc1OC` (stereo not shown) [Compound 1, (4-((6,7-dimethoxyquinolin-4-yl)oxy)phenyl)(imino)(methyl)-λ^6-sulfanone]: the Ki was 3 to 300 nM on ENPP-1 ECD [1] (setting [4]), 3.5 nM at ENPP-1 ECD [1] (setting [5]), 61 nM in test [2] and 5.1 nM at ENPP-1 ECD [3]. The IC50 was 10 to 1000 nM on ENPP-1 ECD [3] (setting [6]), 17 nM at ENPP-1 ECD [3] (setting [7]) and 17 nM at ENPP-1 ECD [3] (setting [8]).

In the case of `COc1cc2nccc(Oc3ccc([S@@](C)(=N)=O)cc3)c2cc1OC` [Compound 1S, (S)-(4-((6,7-dimethoxyquinolin-4-yl)oxy)phenyl)(imino)(methyl)-λ^6-sulfanone], the values for the Ki (at ENPP-1 ECD [1] (setting [4]); on ENPP-1 ECD [1] (setting [5]); in test [2]) were less than 3 nM, 0.87 nM and 45 nM, respectively. Also, the half-maximal inhibitory concentration (IC50) is 10 to 1000 nM against ENPP-1 ECD [3] (setting [6]) and 13 nM at ENPP-1 ECD [3] (setting [7]).

For the molecule `COc1cc2ncnc(N3CCC(CCS(C)(=N)=O)CC3)c2cc1OC` (stereo not shown) [Compound 8, (2-(1-(6,7-dimethoxyquinazolin-4-yl)piperidin-4-yl)ethyl)(imino)(methyl)-λ^6-sulfanone], the values for the Ki (on ENPP-1 ECD [1] (setting [4]); at ENPP-1 ECD [1] (setting [5]); in test [2]) were less than 3 nM, 0.69 nM and 27 nM, respectively. Further, the figures for the concentration for half-maximal inhibition (IC50) at ENPP-1 ECD [3] (setting [7]), against ENPP-1 ECD [3] (setting [8]) and at ENPP-1 ECD [3] (setting [9]) were 4.1 nM, 6.9 nM and less than 10 nM, respectively.

Turning to `COc1ccc2c(Oc3ccc(S(C)(=N)=O)cc3F)ccnc2c1` (stereo not shown) [Compound 12, (3-fluoro-4-((7-methoxyquinolin-4-yl)oxy)phenyl)(imino)(methyl)-λ^6-sulfanone], the Ki on ENPP-1 ECD [1] (setting [4]) was 3 to 300 nM; on ENPP-1 ECD [1] (setting [5]), 8.6 nM; in test [2], 190 nM. Besides, the values for the 50% inhibitory concentration (IC50) on ENPP-1 ECD [3] (setting [6]) and against ENPP-1 ECD [3] (setting [7]) were 10 to 1000 nM and 30 nM, respectively.

Consider `COc1cc2ncnc(-c3ccc4c(c3)CN(S(C)(=N)=O)CC4)c2cc1OC` (stereo not shown) [Compound 37, 6,7-dimethoxy-4-(2-(S-methylsulfonimidoyl)-1,2,3,4-tetrahydroisoquinolin-7-yl)quinazoline], for which the figures for the Ki (at ENPP-1 ECD [1] (setting [4]); at ENPP-1 ECD [1] (setting [5]); in test [2]) were less than 3 nM, 0.41 nM and 28 nM, respectively. Further, the 50% inhibitory concentration (IC50) is 2.9 nM against ENPP-1 ECD [3] (setting [7]) and less than 10 nM at ENPP-1 ECD [3] (setting [9]).

`COc1cc2ncc(C#N)c(N3CCC(CCS(C)(=N)=O)CC3)c2cc1F` (stereo not shown) [Compound 43, 6-fluoro-7-methoxy-4-(4-(2-(S-methylsulfonimidoyl)ethyl)piperidin-1-yl)quinoline-3-carbonitrile]: the values for the Ki (at ENPP-1 ECD [1] (setting [4]); on ENPP-1 ECD [1] (setting [5]); in test [2]) were less than 3 nM, 0.49 nM and 29 nM, respectively. Besides, the results for the IC50 against ENPP-1 ECD [3] (setting [7]) and on ENPP-1 ECD [3] (setting [9]) were 3.9 nM and less than 10 nM, respectively.

For the molecule `COc1cc2ncc(C#N)c(Oc3ccc(S(C)(=N)=O)cc3)c2cc1F` (stereo not shown) [Compound 44, 6-fluoro-7-methoxy-4-(4-(S-methylsulfonimidoyl)phenoxy)quinoline-3-carbonitrile], the Ki on ENPP-1 ECD [1] (setting [4]) was less than 3 nM; at ENPP-1 ECD [1] (setting [5]), 1.6 nM; in test [2], 110 nM. The figures for the IC50 against ENPP-1 ECD [3] (setting [6]) and against ENPP-1 ECD [3] (setting [7]) were 10 to 1000 nM and 15 nM, respectively.

For the molecule `COc1cc2ncc(C#N)c(Oc3ccc([S@@](C)(=N)=O)cc3)c2cc1F` [Compound 44a], the Ki on ENPP-1 ECD [1] (read-out: Assay 2 (KI), ENPP1 hydrolysis of 2′,3′-cGAMP, AMP-Glo, […] ENPP-1, 24 μM cGAMP) is less than 3 nM; at ENPP-1 ECD [1] (setting [10]), 1 nM; in test [2] (setting [11]) it was 110 nM. In addition, the IC50 at ENPP-1 ECD [3] (setting [9]) is 10 to 1000 nM; at ENPP-1 ECD [3] (read-out: Assay 1 (IC50), inhibition of ENPP1 hydrolysis of 2′,3′-cGAMP, no unit in Table 18 (Table 17 legend for this assay uses nM)), 11 nM.

Consider `COc1ccc2c(-c3ccc4c(c3)CN(S(C)(=N)=O)CC4)ccnc2c1` (stereo not shown) [Compound 52, 7-methoxy-4-(2-(S-methylsulfonimidoyl)-1,2,3,4-tetrahydroisoquinolin-7-yl)quinoline], for which the Ki at ENPP-1 ECD [1] (setting [4]) is 3 to 300 nM; on ENPP-1 ECD [1] (setting [5]), 6.3 nM; in test [2], 280 nM. The IC50 was 10 to 1000 nM at ENPP-1 ECD [3] (setting [6]) and 35 nM against ENPP-1 ECD [3] (setting [7]).

On to `COc1ccc2c(N3CCC4(CC3)CN(S(C)(=N)=O)C4)ccnc2c1` (stereo not shown) [Compound 53, 7-methoxy-4-(2-(S-methylsulfonimidoyl)-2,7-diazaspiro[3.5]nonan-7-yl)quinoline], for which the Ki was 3 to 300 nM on ENPP-1 ECD [1] (setting [4]), 4.6 nM on ENPP-1 ECD [1] (setting [5]) and 160 nM in test [2]. Besides, the IC50 is 10 to 1000 nM at ENPP-1 ECD [3] (setting [6]) and 44 nM at ENPP-1 ECD [3] (setting [7]).

With `COc1cc2ncnc(N3CCC4(CC3)CCN(S(C)(=N)=O)C4)c2cc1OC` (stereo not shown) [Compound 54, [8-(6,7-dimethoxyquinazolin-4-yl)-2,8-diazaspiro[4.5]decan-2-yl](imino)methyl-λ^6-sulfanone], the figures for the Ki (on ENPP-1 ECD [1] (setting [4]); at ENPP-1 ECD [1] (setting [5]); in test [2]) were less than 3 nM, 0.014 nM and 0.88 nM, respectively. At ENPP-1 ECD [3] (setting [7]), this molecule showed an IC50 of 0.71 nM.

On to `COc1cc2nccc(N3CCC4(CC3)CCN(S(C)(=N)=O)C4)c2cc1C#N` (stereo not shown) [Compound 226, 4-{2-[imino(methyl)oxo-λ^6-sulfanyl]-2,8-diazaspiro[4.5]decan-8-yl}-7-methoxyquinoline-6-carbonitrile], for which the Ki at ENPP-1 ECD [1] (setting [5]) came to 1.2 nM; in test [2], 43 nM.

On to `COc1cc2ncc(F)c(N3CCC4(CC3)CCN(S(C)(=N)=O)C4)c2cc1OC` (stereo not shown) [Compound 227, [8-(3-fluoro-6,7-dimethoxyquinolin-4-yl)-2,8-diazaspiro[4.5]decan-2-yl](imino)methyl-λ^6-sulfanone], for which the Ki on ENPP-1 ECD [1] (setting [5]) amounted to 0.018 nM; in test [2] it was 0.51 nM.

For `COc1cc2nnc(C)c(N3CCC4(CC3)CCN(S(C)(=N)=O)C4)c2cc1OC` (stereo not shown) [Compound 228, [8-(6,7-dimethoxy-3-methylcinnolin-4-yl)-2,8-diazaspiro[4.5]decan-2-yl](imino)methyl-λ^6-sulfanone], the Ki on ENPP-1 ECD [1] (setting [5]) came to 0.25 nM; in test [2], 8.7 nM.

Turning to `COc1cc2nccc(OC[C@@H]3CCN([S@](C)(=N)=O)C3)c2cc1F` [Compound 229b], the Ki worked out at 0.37 nM at ENPP-1 ECD [1] (setting [10]) and 3.6 nM in test [2] (setting [11]).

In the case of `COc1cc2nccc(OC[C@H]3CCN([S@@](C)(=N)=O)C3)c2cc1F` [Compound 230b], the Ki came to 0.38 nM on ENPP-1 ECD [1] (setting [10]) and 6.6 nM in test [2] (setting [11]).

For the molecule `COc1ccc2c(COc3ccc(S(C)(=N)=O)cc3)ccnc2c1` (stereo not shown) [Compound 231, imino({4-[(7-methoxyquinolin-4-yl)methoxy]phenyl})methyl-λ^6-sulfanone], the Ki is 1.2 nM on ENPP-1 ECD [1] (setting [5]) and 56 nM in test [2].

Turning to `COc1cccc2c(N3CCC4(CC3)CN(S(C)(=N)=O)C4)ncnc12` (stereo not shown) [Compound 236, imino[7-(8-methoxyquinazolin-4-yl)-2,7-diazaspiro[3.5]nonan-2-yl]methyl-λ^6-sulfanone], the Ki at ENPP-1 ECD [1] (setting [5]) was 86 nM; in test [2], greater than 580 nM.

On to `COc1cc2ncnc(N3CC4(CC(CS(C)(=N)=O)C4)C3)c2cc1OC` (stereo not shown) [Compound 237], for which the Ki at ENPP-1 ECD [1] (setting [5]) was found to be 0.028 nM; in test [2], 1.2 nM.

`COc1cc2ncnc(N3CC4(CC(C[S@](C)(=N)=O)C4)C3)c2cc1OC` [Compound 237b]: the figures for the Ki (on ENPP-1 ECD [1] (setting [10]); in test [2] (setting [11])) were 0.005 nM and 0.17 nM, respectively.

On to `COc1cccc2c(N3CC[C@H](C[S@@](C)(=N)=O)C3)ncnc12` [Compound 238a], for which the Ki at ENPP-1 ECD [1] (setting [10]) worked out at 66 nM; in test [2] (setting [11]) it was 260 nM.

Consider `COc1cccc2c(N3CC[C@@H](CS(C)(=N)=O)C3)ncnc12` (stereo partly drawn) [Compound 239, imino({[(3R)-1-(8-methoxyquinazolin-4-yl)pyrrolidin-3-yl]methyl})methyl-λ^6-sulfanone], for which the Ki at ENPP-1 ECD [1] (setting [5]) was 0.81 nM; in test [2], 15 nM.

With `COc1cccc2c(N3CC[C@@H](C[S@](C)(=N)=O)C3)ncnc12` [Compound 239a], the values for the Ki (at ENPP-1 ECD [1] (setting [10]); in test [2] (setting [11])) were 0.43 nM and 5.4 nM, respectively.

Consider `COc1cc2ncnc(N3CCC4(CC3)CCN(S(=N)(=O)CC(C)(C)O)C4)c2cc1OC` (stereo not shown) [Compound 240, [8-(6,7-dimethoxyquinazolin-4-yl)-2,8-diazaspiro[4.5]decan-2-yl](2-hydroxy-2-methylpropyl)imino-λ^6-sulfanone], for which the Ki at ENPP-1 ECD [1] (setting [5]) amounted to 0.069 nM; in test [2], 5.4 nM.

Consider `COc1cc2ncnc(N3CCC4(CC3)CCN(S(C)(=N)=O)C4)c2cc1OCF` (stereo not shown) [Compound 241, {8-[6-(fluoromethoxy)-7-methoxyquinazolin-4-yl]-2,8-diazaspiro[4.5]decan-2-yl}(imino)methyl-λ^6-sulfanone], for which the Ki came out at 0.031 nM at ENPP-1 ECD [1] (setting [5]) and 1.2 nM in test [2].

As to `COc1cc2nccc(OCc3cccc(S(=N)(=O)C4CC4)c3)c2cc1F` (stereo not shown) [Compound 244, [cyclopropyl(3-{[(6-fluoro-7-methoxyquinolin-4-yl)oxy]methyl}phenyl)imino-λ^6-sulfanyl]one], the Ki on ENPP-1 ECD [1] (setting [5]) amounted to 0.018 nM; in test [2], 0.55 nM.

`COc1ccc2c(O[C@@H](C)c3cccc(S(C)(=N)=O)c3)ccnc2c1` (stereo partly drawn) [Compound 245, imino({3-[(1S)-1-[(7-methoxyquinolin-4-yl)oxy]ethyl]phenyl})methyl-λ^6-sulfanone]: the Ki on ENPP-1 ECD [1] (setting [5]) was 0.23 nM; in test [2] it was 5.7 nM.

Turning to `COc1cc2ncnc(-c3ccc4c(c3)CN(S(N)(=O)=O)CC4)c2cc1OC` [reference compound], the Ki in test [2] is 23 nM. The molecule further displayed an IC50 against ENPP-1 ECD [3] (setting [8]) of 11 nM.
